These compounds were tested against T1, human B1R (Homo sapiens, UniProt P46663) (assay: Functional assay at bradykinin receptor 1 (B1R): Ca2+ fluorescence (Fluo-4) in FLIPR/Novostar, antagonist mode). Settings: test substance 10 µM; CHO K1 cells stably transfected with human B1R gene (hB1R-Zellen); agonist Lys-Des-Arg9-Bradykinin at EC80; % inhibition relative to maximal achievable inhibition; read-out: % Inhibierung (human B1R) bei 10 µM.
T1 construct: expressed in transfected cells; host or cells: CHO K1 cells (Chinese Hamster Ovary), stably transfected
T1 sequence (P46663 1-353): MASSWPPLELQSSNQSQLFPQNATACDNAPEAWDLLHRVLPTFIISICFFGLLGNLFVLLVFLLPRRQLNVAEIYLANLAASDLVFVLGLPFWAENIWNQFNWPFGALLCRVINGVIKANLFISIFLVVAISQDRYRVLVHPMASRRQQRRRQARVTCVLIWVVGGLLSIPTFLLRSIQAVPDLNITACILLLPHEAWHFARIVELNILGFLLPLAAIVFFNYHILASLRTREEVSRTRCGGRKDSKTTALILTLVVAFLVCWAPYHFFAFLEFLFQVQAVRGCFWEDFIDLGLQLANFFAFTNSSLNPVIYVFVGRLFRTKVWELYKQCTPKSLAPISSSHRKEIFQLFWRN
Assay type: cell-based
In short: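 CHO K1 cells stably expressing human B1R were loaded with Fluo-4 and preincubated 6–20 min with test compound before Lys-Des-Arg9-bradykinin at its EC80. Peak fluorescence (ex 488/em 540 nm) gave % inhibition versus maximal inhibition; IC50 from several concentrations, n=2 or 3.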

inhibition at 10 µM	SMILES
100%	COc1cc(C)c(S(=O)(=O)Cc2noc(C(=O)N3CCC4(CC3)CCN(c3ccncc3)C4)n2)c(C)c1 [CC-139, [3-[[(4-Methoxy-2,6-dimethyl-phenyl)sulfonyl]-methyl]-[1,2,4]oxadiazol-5-yl]-(3-pyridin-4-yl-3,8-diazaspiro[4.5]decan-8-yl)-methanon]
99%	Cc1cc(S(=O)(=O)Cc2noc(C(=O)N3CCC(N4CCN(C)CC4)CC3)n2)c(C)cc1Cl [CC-141, [3-[[(4-Chlor-2,5-dimethyl-phenyl)sulfonyl]-methyl]-[1,2,4]oxadiazol-5-yl]-[4-(4-methyl-piperazin-1-yl)-piperidin-1-yl]-methanon]
99%	Cc1cc(S(=O)(=O)Cc2noc(C(=O)N3CCC4(CCN(C)C4)C3)n2)c(C)cc1Cl (stereo not drawn) [CC-142, [3-[[(4-Chlor-2,5-dimethyl-phenyl)sulfonyl]-methyl]-[1,2,4]oxadiazol-5-yl]-(2-methyl-2,8-diaza-spiro[4.4]nonan-8-yl)-methanon]
82%	Cc1cccc(Cl)c1S(=O)(=O)Cc1noc(C(=O)N2CCC3(CCN(C)C3)C2)n1 (stereo not drawn) [CC-143, [3-[[(2-Chlor-6-methyl-phenyl)sulfonyl]-methyl]-[1,2,4]oxadiazol-5-yl]-(2-methyl-2,8-diazaspiro-[4.4]nonan-8-yl)-methanon]
100%	Cc1cc(S(=O)(=O)Cc2noc(C(=O)N3CCN(c4ccncc4)CC3)n2)c(C)cc1Cl [CC-144, [3-[[(4-Chlor-2,5-dimethyl-phenyl)sulfonyl]-methyl]-[1,2,4]oxadiazol-5-yl]-(4-pyridin-4-yl-piperazin-1-yl)-methanon]
100%	Cc1cc(S(=O)(=O)Cc2noc(C(=O)N3CCC4(CC3)CCN(c3ccncc3)CC4)n2)c(C)cc1Cl [CC-146, [3-[[(4-Chlor-2,5-dimethyl-phenyl)sulfonyl]-methyl]-[1,2,4]oxadiazol-5-yl]-(9-pyridin-4-yl-3,9-diazaspiro[5.5]undecan-3-yl)-methanon]
100%	COc1cc(C)c(S(=O)(=O)Cc2noc(C(=O)N3CCC4(CCN(C)C4)C3)n2)c(C)c1 (stereo not drawn) [CC-147, [3-[[(4-Methoxy-2,6-dimethyl-phenyl)sulfonyl]-methyl]-[1,2,4]oxadiazol-5-yl]-(2-methyl-2,8-diazaspiro[4.4]nonan-8-yl)-methanon]
100%	Cc1cc(S(=O)(=O)Cc2noc(C(=O)N3CCC4(CC3)CCN(c3ccncc3)C4)n2)c(C)cc1Cl [CC-152, [3-[[(4-Chlor-2,5-dimethyl-phenyl)sulfonyl]-methyl]-[1,2,4]oxadiazol-5-yl]-(3-pyridin-4-yl-3,8-diazaspiro[4.5]decan-8-yl)-methanon]

Second part, the compound before the results:

SMILES	inhibition at 10 µM
Cc1cccc(Cl)c1S(=O)(=O)Cc1noc(C(=O)N2CCC(N3CCN(C)CC3)CC2)n1 [CC-138, [3-[[(2-Chlor-6-methyl-phenyl)sulfonyl]-methyl]-[1,2,4]oxadiazol-5-yl]-[4-(4-methyl-piperazin-1-yl)-piperidin-1-yl]-methanon]	95%
Cc1cccc(Cl)c1S(=O)(=O)Cc1noc(C(=O)N2CCC3(CC2)CCN(c2ccncc2)C3)n1 [CC-145, [3-[[(2-Chlor-6-methyl-phenyl)sulfonyl]-methyl]-[1,2,4]oxadiazol-5-yl]-(3-pyridin-4-yl-3,8-diazaspiro[4.5]decan-8-yl)-methanon]	100%
Cc1cccc(Cl)c1S(=O)(=O)Cc1noc(C(=O)N2CCC3(CC2)CCN(c2ccncc2)CC3)n1 [CC-148, [3-[[(2-Chlor-6-methyl-phenyl)sulfonyl]-methyl]-[1,2,4]oxadiazol-5-yl]-(9-pyridin-4-yl-3,9-diazaspiro[5.5]undecan-3-yl)-methanon]	100%
COc1cc(C)c(S(=O)(=O)Cc2noc(C(=O)N3[C@@H]4CC[C@H]3CC(Oc3ccncc3)C4)n2)c(C)c1 (stereo partly drawn) [CC-149, [3-[[(4-Methoxy-2,6-dimethyl-phenyl)sulfonyl]-methyl]-[1,2,4]oxadiazol-5-yl]-[(1S,5R)-3-pyridin-4-yloxy-8-azabicyclo[3.2.1]octan-8-yl]-methanon]	100%
Cc1cccc(Cl)c1S(=O)(=O)Cc1noc(C(=O)N2C3CCC2CC(Oc2ccncc2)C3)n1 [CC-150, [3-[[(2-Chlor-6-methyl-phenyl)sulfonyl]-methyl]-[1,2,4]oxadiazol-5-yl]-[(1S,5R)-3-pyridin-4-yloxy-8-azabicyclo[3.2.1]octan-8-yl]-methanon]	100%
COc1cc(C)c(S(=O)(=O)Cc2noc(CC(=O)N3CCC(Cc4ccncc4)CC3(C)C)n2)c(C)c1 (stereo not drawn) [CC-153, 1-[2,2-Dimethyl-4-(pyridin-4-yl-methyl)-piperidin-1-yl]-2-[3-[[(4-methoxy-2,6-dimethyl-phenyl)-sulfonyl]-methyl]-[1,2,4]oxadiazol-5-yl]-ethanon]	92%
COc1cc(C)c(S(=O)(=O)Cc2cc(C)n(CC(=O)NC3CCC(N(C)C)CC3)n2)c(C)c1 (stereo not drawn) [CC-154, N-(4-Dimethylamino-cyclohexyl)-2-[3-[[(4-methoxy-2,6-dimethyl-phenyl)sulfonyl]-methyl]-5-methyl-1 H-pyrazol-1-yl]-acetamid]	80%
COc1cc(C)c(S(=O)(=O)Cc2cc(C)n(CC(=O)NC3CCC(N4CCCC4)CC3(C)C)n2)c(C)c1 (stereo not drawn) [CC-155, N-(2,2-Dimethyl-4-pyrrolidin-1-yl-cyclohexyl)-2-[3-[[(4-methoxy-2,6-dimethyl-phenyl)sulfonyl]-methyl]-5-methyl-1 H-pyrazol-1-yl]-acetamid]	98%
COc1cc(C)c(S(=O)(=O)Cc2cc(C)n(CC(=O)NC3CCC(N4CCCC4)CC3)n2)c(C)c1 (stereo not drawn) [CC-156, 2-[3-[[(4-Methoxy-2,6-dimethyl-phenyl)sulfonyl]-methyl]-5-methyl-1H-pyrazol-1-yl]-N-(4-pyrrolidin-1-yl-cyclohexyl)-acetamid]	98%
COCCN1CCC(NC(=O)Cn2nc(CS(=O)(=O)c3c(C)cc(OC)cc3C)cc2C)C(C)(C)C1 (stereo not drawn) [CC-157, 2-[3-[[(4-Methoxy-2,6-dimethyl-phenyl)sulfonyl]-methyl]-5-methyl-1H-pyrazol-1-yl]-N-[1-(2-methoxy-ethyl)-3,3-dimethyl-piperidin-4-yl]-acetamid]	61%
COc1cc(C)c(S(=O)(=O)Cc2cn(CC(=O)NC3CCC(N4CCCC4)CC3(C)C)nn2)c(C)c1 (stereo not drawn) [CC-158, N-(2,2-Dimethyl-4-pyrrolidin-1-yl-cyclohexyl)-2-[4-[[(4-methoxy-2,6-dimethyl-phenyl)sulfonyl]-methyl]-1H-[1,2,3]triazol-1-yl]-acetamid]	100%
COc1cc(C)c(S(=O)(=O)Cc2cc(C)n(CC(=O)NC3CCN(C(C)=O)CC3(C)C)n2)c(C)c1 (stereo not drawn) [CC-159, N-(1-Acetyl-3,3-dimethyl-piperidin-4-yl)-2-[3-[[(4-methoxy-2,6-dimethyl-phenyl)sulfonyl]-methyl]-5-methyl-1 H-pyrazol-1-yl]-acetamid]	50%
COCCN1CCC(NC(=O)Cn2cc(CS(=O)(=O)c3c(C)cc(OC)cc3C)nn2)C(C)(C)C1 (stereo not drawn) [CC-160, 2-[4-[[(4-Methoxy-2,6-dimethyl-phenyl)sulfonyl]-methyl]-1H-[1,2,3]triazol-1-yl]-N-[1-(2-methoxy-ethyl)-3,3-dimethyl-piperidin-4-yl]-acetamid]	100%

From EP2857388A1, “Azoles containing sulfone” (Grünenthal GmbH, priority 2013, dated 2015)
